According to article PMC4004102 (Molecular cell, 2014):

Biological target: AgrC-I (Staphylococcus aureus, UniProt Q309Y8)
Experiment: reverse autokinase kinetics, Michaelis-Menten
Type: biochemical
Settings: reverse reaction from pre-phosphorylated AgrC-I discs; without AIP

Compound: Nc1ncnc2c1ncn2[C@@H]1O[C@H](COP(=O)(O)OP(=O)(O)O)[C@@H](O)[C@H]1O [ADP]
- Km: the Km for ADP was lower while the kmax was higher than the forward reaction
